Laboratory results from ChEMBL document CHEMBL1649292, “In vivo investigations of selected diamidine compounds against Trypanosoma evansi using a mouse model” (2009).
Active and inactive are the calls of the source. No cut-off for these calls is given here.

Assays:
Trypanosoma evansi [1] = test: Antimicrobial activity against Trypanosoma evansi STIB 806K infected in NMRI mouse assessed as complete cure from microbial infection at 2 mg/kg, ip administered 3 to 6 days after infection for 4 consecutive days; format: functional, organism-based; set-up: dose 2 mg/kg
Trypanosoma evansi [2] = test: Antimicrobial activity against Trypanosoma evansi STIB 806K infected in NMRI mouse assessed as host survival days at 2 mg/kg, ip administered 3 to 6 days after infection for 4 consecutive days; format: functional; conditions: route intraperitoneal
Trypanosoma evansi [3] = test: Antimicrobial activity against Trypanosoma evansi STIB 806K infected in NMRI mouse assessed as complete cure from microbial infection at 0.25 mg/kg, ip administered 3 to 6 days after infection for 4 consecutive days; format: functional, organism-based; set-up: dose 0.25 mg/kg
Trypanosoma evansi [4] = test: Antimicrobial activity against Trypanosoma evansi STIB 806K infected in NMRI mouse assessed as host survival days at 0.25 mg/kg, ip administered 3 to 6 days after infection for 4 consecutive days; format: functional; conditions: route intraperitoneal
Trypanosoma evansi [5] = test: Antimicrobial activity against Trypanosoma evansi STIB 806K infected in NMRI mouse assessed as host survival days at 1 mg/kg, ip administered 3 to 6 days after infection for 4 consecutive days; format: functional; conditions: route intraperitoneal
Trypanosoma evansi [6] = test: Antimicrobial activity against Trypanosoma evansi STIB 806K infected in NMRI mouse assessed as host survival days at 0.5 mg/kg, ip administered 3 to 6 days after infection for 4 consecutive days; format: functional; conditions: route intraperitoneal
Trypanosoma evansi [7] = test: Antimicrobial activity against Trypanosoma evansi STIB 806K infected in NMRI mouse assessed as complete cure from microbial infection at 1 mg/kg, ip administered 3 to 6 days after infection for 4 consecutive days; format: functional, organism-based; set-up: dose 1 mg/kg
Trypanosoma evansi [8] = test: Antimicrobial activity against Trypanosoma evansi STIB 806K infected in NMRI mouse assessed as host survival days at 0.125 mg/kg, ip administered 3 to 6 days after infection for 4 consecutive days; format: functional; conditions: route intraperitoneal
Trypanosoma evansi [9] = test: Antimicrobial activity against Trypanosoma evansi STIB 806K infected in NMRI mouse assessed as complete cure from microbial infection at 0.5 mg/kg, ip administered 3 to 6 days after infection for 4 consecutive days; format: functional, organism-based; set-up: dose 0.5 mg/kg
Trypanosoma evansi [10] = test: Antimicrobial activity against Trypanosoma evansi STIB 806K infected in NMRI mouse assessed as host survival days at 0.0625 mg/kg, ip administered 3 to 6 days after infection for 4 consecutive days; format: functional; conditions: route intraperitoneal
Trypanosoma evansi [11] = test: Antimicrobial activity against Trypanosoma evansi STIB 806K infected in NMRI mouse assessed as complete cure from microbial infection at 0.20 mg/kg, ip administered 3 to 6 days after infection for 4 consecutive days; format: functional, organism-based; set-up: dose 0.2 mg/kg
Trypanosoma evansi [12] = test: Antimicrobial activity against Trypanosoma evansi STIB 806K infected in NMRI mouse assessed as host survival days at 0.20 mg/kg, ip administered 3 to 6 days after infection for 4 consecutive days; format: functional; conditions: dose 0.2 mg/kg; route intraperitoneal
Trypanosoma evansi [13] = test: Antimicrobial activity against Trypanosoma evansi STIB 806K infected in NMRI mouse assessed as host survival days at 0.2 mg/kg, ip administered 3 to 6 days after infection for 4 consecutive days; format: functional; conditions: route intraperitoneal
Trypanosoma evansi [14] = test: Antimicrobial activity against Trypanosoma evansi STIB 806K infected in NMRI mouse assessed as complete cure from microbial infection at 0.2 mg/kg, ip administered 3 to 6 days after infection for 4 consecutive days; format: functional, organism-based; set-up: dose 0.2 mg/kg
Trypanosoma evansi [15] = test: Antimicrobial activity against Trypanosoma evansi STIB 806K infected in NMRI mouse assessed as complete cure from microbial infection at 0.125 mg/kg, ip administered 3 to 6 days after infection for 4 consecutive days; format: functional, organism-based; set-up: dose 0.125 mg/kg
Trypanosoma evansi [16] = test: Antimicrobial activity against Trypanosoma evansi STIB 806K infected in NMRI mouse assessed as host survival days at 0.03125 mg/kg, ip administered 3 to 6 days after infection for 4 consecutive days; format: functional; conditions: route intraperitoneal
Trypanosoma evansi [17] = test: Antimicrobial activity against Trypanosoma evansi STIB 806K infected in NMRI mouse assessed as complete cure from microbial infection at 0.0625 mg/kg, ip administered 3 to 6 days after infection for 4 consecutive days; format: functional, organism-based; set-up: dose 0.0625 mg/kg

Row | SMILES | Activity (Trypanosoma evansi [1]) | Survival (Trypanosoma evansi [2]) [days] | Survival (Trypanosoma evansi [6]) [days] | Activity (Trypanosoma evansi [9]) | other results
1 | N=C(N)c1ccc(-c2cccc(-c3nc4ccc(C(=N)N)cc4[nH]3)c2)nc1 | inactive | 18 | – | – | –
2 | Cc1ccc(C(=O)Nc2ccc(S(=O)(=O)O)c3cc(S(=O)(=O)O)cc(S(=O)(=O)O)c23)cc1NC(=O)c1cccc(NC(=O)Nc2cccc(C(=O)Nc3cc(C(=O)Nc4ccc(S(=O)(=O)O)c5cc(S(=O)(=O)O)cc(S(=O)(=O)O)c45)ccc3C)c2)c1 [SURAMIN] | – | – | 51 | – | Activity (Trypanosoma evansi [3]): inactive; Survival (Trypanosoma evansi [4]): 11 days; Survival (Trypanosoma evansi [5]): 60 days; Activity (Trypanosoma evansi [7]): Active
3 | Cc1cc(C(=N)N)cn2cc(-c3ccc(-c4ccc(C(=N)N)cc4)o3)nc12 | inactive | 13 | – | – | –
4 | Cn1c(-c2ccc(C(=N)N)nc2)ccc1-c1ccc(C(=N)N)nc1 | – | – | 34 | – | –
5 | N=C(N)c1ccc(-c2ccc(-c3ccc(C(=N)N)nc3)o2)nc1 | Active | 60 | 60 | Active | Survival (Trypanosoma evansi [8]): 23 days; Survival (Trypanosoma evansi [4]): 46 days
6 | N=C(N)c1ccc(-c2ccc(-c3ccc(C(=N)N)cc3)o2)cc1 [FURAMIDINE] | – | – | – | – | Survival (Trypanosoma evansi [8]): 55 days; Activity (Trypanosoma evansi [3]): Active; Survival (Trypanosoma evansi [10]): 29 days; Activity (Trypanosoma evansi [11]): Active; Survival (Trypanosoma evansi [4]): 60 days; Survival (Trypanosoma evansi [12]): 60 days
7 | N=C(N)c1ccc(/N=N/Nc2ccc(C(=N)N)cc2)cc1 [DIMINAZENE] | Active | 60 | – | – | Survival (Trypanosoma evansi [13]): 9 days; Survival (Trypanosoma evansi [5]): 44 days; Activity (Trypanosoma evansi [14]): inactive
8 | Cc1cc(C2=NCCN2)ccc1-c1cc2cc(C3=NCCN3)ccc2[nH]1 | – | – | 7 | inactive | –
9 | N=C(N)c1ccc(-c2ccc(-c3ccc4ccc(C(=N)N)cc4c3)o2)cc1 | – | – | 15 | inactive | –
10 | COc1cc(C(=N)N)ccc1OCCCOc1ccc(C(=N)N)cc1OC | – | 29 | – | – | –
11 | Cc1cc(=N)c2ccc(Nc3cc(C)[n+](C)c(N)n3)cc2n1C.O=S(=O)([O-])O [QUINAPYRAMINE SULFATE] | – | – | 57 | – | Survival (Trypanosoma evansi [4]): 41 days; Survival (Trypanosoma evansi [5]): 60 days; Activity (Trypanosoma evansi [7]): Active
12 | Cn1c(-c2ccc(C(=N)N)cc2)ccc1-c1ccc(C(=N)N)cc1 | – | 49 | – | – | –
13 | N=C(N)c1ccc(-c2ccc(-c3ccc(C(=N)N)cc3F)o2)c(F)c1 | – | – | 43 | – | –
14 | N=C(N)c1ccc(-c2ccc(-c3cn4cc(C(=N)N)ccc4n3)cc2)cc1 | – | 35 | – | – | Survival (Trypanosoma evansi [13]): 12 days; Activity (Trypanosoma evansi [14]): inactive
15 | N=C(N)c1ccc(-c2cc(-c3ccc(C(=N)N)cc3)on2)cc1 | Active | 60 | 29 | – | –
16 | CNC(=N)c1ccc(OCCCCCOc2ccc(C(=N)NC)cc2)cc1 | inactive | 29 | – | – | –
17 | N=C(N)c1ccc(-c2coc(-c3ccc(C(=N)N)cc3)c2)cc1 | Active | 60 | 57 | – | Survival (Trypanosoma evansi [4]): 41 days

Row | SMILES | Activity (Trypanosoma evansi [1]) | Survival (Trypanosoma evansi [2]) [days] | Survival (Trypanosoma evansi [6]) [days] | Activity (Trypanosoma evansi [9]) | other results
18 | N=C(N)c1ccc2nc(-c3ccc(-c4ccc(C(=N)N)c(F)c4)o3)[nH]c2c1 | – | – | 27 | inactive | –
19 | N=C(N)c1ccc(-c2cccc(-c3ccc(C(=N)N)cc3)n2)cc1 | – | – | 16 | inactive | –
20 | N=C(N)c1ccc(-c2ccc(-c3ccc(C(=N)N)o3)cn2)cc1 | – | 28 | – | – | –
21 | N=C(N)c1ccc(-c2ccc(-c3ccc(C(=N)N)cn3)o2)cc1 | – | – | 60 | Active | Survival (Trypanosoma evansi [8]): 50 days; Activity (Trypanosoma evansi [3]): Active; Survival (Trypanosoma evansi [4]): 60 days
22 | N=C(N)c1ccc(-c2csc(-c3ccc(C(=N)N)cc3)n2)cc1 | – | 53 | – | – | –
23 | N=C(N)c1ccc(-c2ccc(-c3ccc(C(=N)N)cc3O)o2)cc1 | Active | 60 | 60 | Active | Survival (Trypanosoma evansi [8]): 32 days; Survival (Trypanosoma evansi [4]): 38 days
24 | N=C(N)c1cccc(-c2ccc(-c3nc4cc(C(=N)N)ccc4[nH]3)cc2)c1 | – | – | 12 | inactive | –
25 | N=C(N)c1ccc(-c2ccc(-c3ccc(C(=N)N)nc3)o2)cc1 | Active | 60 | 60 | Active | Survival (Trypanosoma evansi [8]): 46 days; Survival (Trypanosoma evansi [4]): 54 days
26 | COc1cc(-c2ccc(C(=N)N)cc2)c(OC)cc1-c1ccc(C(=N)N)cc1 | – | – | 7 | inactive | –
27 | Cc1cc(C(=N)N)ccc1-c1cc2cc(C(=N)N)ccc2[nH]1 | Active | 60 | 60 | Active | Survival (Trypanosoma evansi [8]): 29 days; Survival (Trypanosoma evansi [4]): 51 days
28 | CNC(=N)Nc1ccc(-c2ccc(-c3ccc(NC(=N)NC)cc3)cc2)cc1 | – | – | 13 | inactive | –
29 | c1cc(-c2cc3cc(C4=NCCN4)ccc3[nH]2)ccc1C1=NCCN1 | – | 39 | – | – | –
30 | COc1cc(C(=N)N)ccc1-c1ccnc(-c2ccc(C(=N)N)cc2)n1 | – | – | 15 | inactive | –
31 | Cc1cc(C(=N)N)ccc1-c1ccc(-c2nc3ccc(C(=N)N)cc3[nH]2)o1 | – | – | 16 | inactive | –
32 | N=C(N)c1ccc(-c2ccc(-c3nc4cc(C(=N)N)ccc4o3)o2)cc1 | inactive | 23 | – | – | –
33 | NCCS[As](SCCN)c1ccc(Nc2nc(N)nc(N)n2)cc1 | – | – | – | – | Survival (Trypanosoma evansi [8]): 60 days; Survival (Trypanosoma evansi [10]): 60 days; Activity (Trypanosoma evansi [15]): Active; Survival (Trypanosoma evansi [16]): 37 days; Activity (Trypanosoma evansi [17]): Active
